The text below walks through data of ChEMBL document CHEMBL4507256 (2021).

The subject of series [1] is Tyrosine-protein kinase ABL1 (Homo sapiens), P00519 [M351T]. Particulars: Compound concentration 1000.0 nM; call rule not given here.
The target of series [2] is Serine/threonine-protein kinase pim-2 (Homo sapiens) (UniProt Q9P1W9). Particulars: Compound concentration 1000.0 nM.
Series [3] deals with Peripheral plasma membrane protein CASK (Homo sapiens) (UniProt O14936). To be noted: Compound concentration 1000.0 nM.
The target in series [4] is T1, 5-hydroxytryptamine receptor 2C (Homo sapiens) (UniProt P28335).
T1 sequence (whole entry): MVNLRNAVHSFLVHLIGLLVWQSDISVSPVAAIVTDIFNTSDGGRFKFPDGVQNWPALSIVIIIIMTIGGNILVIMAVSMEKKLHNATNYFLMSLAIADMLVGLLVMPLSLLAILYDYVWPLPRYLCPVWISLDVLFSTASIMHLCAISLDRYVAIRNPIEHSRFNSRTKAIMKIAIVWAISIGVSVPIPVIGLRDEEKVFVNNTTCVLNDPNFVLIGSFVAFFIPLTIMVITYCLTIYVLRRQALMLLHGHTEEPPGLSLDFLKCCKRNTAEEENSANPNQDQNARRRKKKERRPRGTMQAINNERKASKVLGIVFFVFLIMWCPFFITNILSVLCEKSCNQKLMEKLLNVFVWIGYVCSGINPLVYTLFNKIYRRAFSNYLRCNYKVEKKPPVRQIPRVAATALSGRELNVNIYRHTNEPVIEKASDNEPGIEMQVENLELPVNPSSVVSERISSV
To be noted: Compound concentration 10.0 uM.

The target in series [5] is Proto-oncogene tyrosine-protein kinase Src (Homo sapiens) (UniProt P12931). Particulars: Compound concentration 1000.0 nM.
The target in series [6] is Myosin light chain kinase family member 4 (Homo sapiens) (UniProt Q86YV6). To be noted: Compound concentration 1000.0 nM.
Series [7] has as its target Serine/threonine-protein kinase TAO3 (Homo sapiens) (UniProt Q9H2K8). Particulars: Compound concentration 1000.0 nM.
The target of series [8] is Dual specificity tyrosine-phosphorylation-regulated kinase 2 (Homo sapiens) (UniProt Q92630). Particulars: Compound concentration 1000.0 nM.
Series [9] addresses Serine/threonine-protein kinase PAK 3 (Homo sapiens) (UniProt O75914). Particulars: Compound concentration 1000.0 nM.
Series [10] concerns the target Tyrosine-protein kinase Fgr (Homo sapiens) (UniProt P09769). To be noted: Compound concentration 1000.0 nM.
Series [11] has as its target Ephrin type-A receptor 3 (Homo sapiens) (UniProt P29320). Particulars: Compound concentration 1000.0 nM.
Series [12] has as its target Beta-1 adrenergic receptor (Homo sapiens) (UniProt P08588). Particulars: Compound concentration 10.0 uM.
Series [13] has as its target Beta-adrenergic receptor kinase 1 (Homo sapiens) (UniProt P25098). Particulars: Compound concentration 1000.0 nM.
For series [14], the target named is Cholecystokinin receptor type A (Homo sapiens) (UniProt P32238). Description: CCKA (h) CEREP ligand profiling. Particulars: Compound concentration 10.0 uM.
Series [15] deals with D(2) dopamine receptor (Homo sapiens) (UniProt P14416). Kind of series: D2S (h) CEREP ligand profiling. Particulars: Compound concentration 10.0 uM.
Series [16] concerns the target T2, Muscarinic acetylcholine receptor M5 (Homo sapiens) (UniProt P08912).
T2 sequence (whole entry): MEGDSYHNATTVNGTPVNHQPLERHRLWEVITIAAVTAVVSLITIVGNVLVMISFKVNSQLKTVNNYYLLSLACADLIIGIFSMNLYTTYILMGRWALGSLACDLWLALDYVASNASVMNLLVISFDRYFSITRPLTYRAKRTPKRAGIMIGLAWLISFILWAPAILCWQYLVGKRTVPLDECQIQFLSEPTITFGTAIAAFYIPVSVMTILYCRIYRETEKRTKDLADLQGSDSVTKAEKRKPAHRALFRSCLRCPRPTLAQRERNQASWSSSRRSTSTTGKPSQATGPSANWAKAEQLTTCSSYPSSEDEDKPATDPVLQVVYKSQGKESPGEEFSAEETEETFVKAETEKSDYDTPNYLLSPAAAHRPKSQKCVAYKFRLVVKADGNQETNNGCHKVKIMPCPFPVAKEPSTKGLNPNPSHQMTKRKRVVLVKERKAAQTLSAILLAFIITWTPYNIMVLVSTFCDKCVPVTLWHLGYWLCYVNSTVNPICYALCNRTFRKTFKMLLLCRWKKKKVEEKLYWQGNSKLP
Kind of series: M5 (h) CEREP ligand profiling. Particulars: Compound concentration 10.0 uM.

Series [17] deals with Galanin receptor type 1 (Homo sapiens) (UniProt P47211). Kind of series: GAL1 (h) CEREP ligand profiling. Particulars: Compound concentration 10.0 uM.
The target of series [18] is Na+ channel (sodium channel alpha subunit family) (Homo sapiens, UniProt P35498+P35499+Q01118+Q14524+Q15858+Q99250+Q9NY46+Q9UI33+Q9UQD0+Q9Y5Y9). Kind of series: Na+ channel CEREP ligand profiling. To be noted: probe veratridine (ligand); compound concentration 10 uM. The format is protein assay.
Series [19] deals with Adrenergic receptor alpha-2 (Homo sapiens) (UniProt P08913+P18825+P18089). Description: alpha 2 CEREP ligand profiling. The format is protein assay. Particulars: Compound concentration 10.0 uM.
Series [20] has as its target 5-hydroxytryptamine receptor 5A (Homo sapiens) (UniProt P47898). Kind of series: 5-HT5A (h) CEREP ligand profiling. To be noted: Compound concentration 10.0 uM.
Series [21] has as its target Sigma non-opioid intracellular receptor 1 (Homo sapiens, UniProt Q99720). Description: sigma CEREP ligand profiling. Particulars: Compound concentration 10.0 uM.
For series [22], the target named is Mu-type opioid receptor (Homo sapiens) (UniProt P35372). Description: mu (h) (MOP) CEREP ligand profiling. To be noted: Compound concentration 10.0 uM.
Series [23] concerns the target 5-hydroxytryptamine receptor 2A (Homo sapiens) (UniProt P28223). Kind of series: 5-HT2A (h) CEREP ligand profiling. Particulars: Compound concentration 10.0 uM.
The target in series [24] is GABA-A receptor; anion channel (Homo sapiens) (UniProt P14867+P47870+P18507+P28472+P48169+Q99928+Q9UN88+P34903+O00591+O14764+Q8N1C3+P18505+P78334+P47869+P31644+Q16445). Description: Cl- channel CEREP ligand profiling. The format is protein-complex assay. Particulars: Compound concentration 10.0 uM.
Series [25] concerns the target Tumor necrosis factor (Homo sapiens) (UniProt P01375). Kind of series: TNF-alpha (h) CEREP ligand profiling. To be noted: Compound concentration 10.0 uM.
Series [26] has as its target Cannabinoid receptor 1 (Homo sapiens) (UniProt P21554). Description: CB1 (h) CEREP ligand profiling. Particulars: Compound concentration 10.0 uM.
In series [27] the target is Adrenergic receptor alpha-1 (Homo sapiens) (UniProt P35348+P25100+P35368). Description: alpha1 CEREP ligand profiling. The format is protein assay. To be noted: Compound concentration 10.0 uM.
In series [28] the target is Gastrin/cholecystokinin type B receptor (Homo sapiens) (UniProt P32239). Description: CCKB (h) CEREP ligand profiling. Particulars: Compound concentration 10.0 uM.
Series [29] deals with C-X-C chemokine receptor type 2 (Homo sapiens) (UniProt P25025). Description: CXCR2 (h) CEREP ligand profiling. To be noted: Compound concentration 10.0 uM.
Series [30] addresses P2Y receptor (Homo sapiens) (UniProt Q9H244+P51582+P47900+P41231+Q15391+Q15077+Q96G91+Q9BPV8). Kind of series: P2Y CEREP ligand profiling. To be noted: Compound concentration 10.0 uM. Type of series: protein assay.

Chain of Dual specificity tyrosine-phosphorylation-regulated kinase 2 (Homo sapiens) (Q92630 whole entry): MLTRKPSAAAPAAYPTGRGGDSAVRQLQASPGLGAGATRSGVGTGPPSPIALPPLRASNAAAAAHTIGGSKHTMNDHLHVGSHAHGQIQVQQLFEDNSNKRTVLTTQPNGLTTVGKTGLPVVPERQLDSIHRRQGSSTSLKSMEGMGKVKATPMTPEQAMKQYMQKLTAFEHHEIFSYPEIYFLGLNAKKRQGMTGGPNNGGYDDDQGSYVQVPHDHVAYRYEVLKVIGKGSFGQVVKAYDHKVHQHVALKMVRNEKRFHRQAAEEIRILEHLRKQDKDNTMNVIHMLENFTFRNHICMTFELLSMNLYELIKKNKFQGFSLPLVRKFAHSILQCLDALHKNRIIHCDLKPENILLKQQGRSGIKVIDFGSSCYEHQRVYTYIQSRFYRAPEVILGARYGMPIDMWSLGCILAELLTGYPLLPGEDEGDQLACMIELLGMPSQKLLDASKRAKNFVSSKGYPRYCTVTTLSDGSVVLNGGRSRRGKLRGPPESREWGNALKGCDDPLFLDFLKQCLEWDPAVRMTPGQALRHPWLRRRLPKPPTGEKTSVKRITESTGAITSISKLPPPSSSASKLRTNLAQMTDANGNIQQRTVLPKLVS
Chain of Serine/threonine-protein kinase pim-2 (Homo sapiens) (Q9P1W9 whole entry, looked up): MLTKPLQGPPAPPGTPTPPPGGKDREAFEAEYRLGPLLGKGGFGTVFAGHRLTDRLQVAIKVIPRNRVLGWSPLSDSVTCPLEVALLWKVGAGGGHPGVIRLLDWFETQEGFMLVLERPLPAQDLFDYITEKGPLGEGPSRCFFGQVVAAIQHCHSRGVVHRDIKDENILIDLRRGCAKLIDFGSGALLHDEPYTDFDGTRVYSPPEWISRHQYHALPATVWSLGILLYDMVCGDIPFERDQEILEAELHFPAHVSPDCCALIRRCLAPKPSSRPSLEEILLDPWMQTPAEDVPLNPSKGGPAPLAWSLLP
Chain of Tyrosine-protein kinase Fgr (Homo sapiens) (P09769 2-529 limits assumed): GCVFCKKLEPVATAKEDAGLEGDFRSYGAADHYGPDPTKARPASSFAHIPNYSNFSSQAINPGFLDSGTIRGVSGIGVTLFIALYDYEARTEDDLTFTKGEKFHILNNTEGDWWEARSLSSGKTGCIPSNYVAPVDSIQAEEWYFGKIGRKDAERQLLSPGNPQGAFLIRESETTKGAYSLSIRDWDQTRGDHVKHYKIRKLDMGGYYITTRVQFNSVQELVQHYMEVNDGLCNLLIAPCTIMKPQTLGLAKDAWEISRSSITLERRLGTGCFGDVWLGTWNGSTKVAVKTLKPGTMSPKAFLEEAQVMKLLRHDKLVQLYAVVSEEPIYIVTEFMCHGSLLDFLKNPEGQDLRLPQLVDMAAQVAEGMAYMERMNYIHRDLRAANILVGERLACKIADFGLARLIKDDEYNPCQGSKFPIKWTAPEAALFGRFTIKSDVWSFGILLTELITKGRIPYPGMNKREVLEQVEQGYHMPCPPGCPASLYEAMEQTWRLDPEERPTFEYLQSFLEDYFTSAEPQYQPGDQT
Chain of Proto-oncogene tyrosine-protein kinase Src (Homo sapiens) (P12931 2-536 limits assumed): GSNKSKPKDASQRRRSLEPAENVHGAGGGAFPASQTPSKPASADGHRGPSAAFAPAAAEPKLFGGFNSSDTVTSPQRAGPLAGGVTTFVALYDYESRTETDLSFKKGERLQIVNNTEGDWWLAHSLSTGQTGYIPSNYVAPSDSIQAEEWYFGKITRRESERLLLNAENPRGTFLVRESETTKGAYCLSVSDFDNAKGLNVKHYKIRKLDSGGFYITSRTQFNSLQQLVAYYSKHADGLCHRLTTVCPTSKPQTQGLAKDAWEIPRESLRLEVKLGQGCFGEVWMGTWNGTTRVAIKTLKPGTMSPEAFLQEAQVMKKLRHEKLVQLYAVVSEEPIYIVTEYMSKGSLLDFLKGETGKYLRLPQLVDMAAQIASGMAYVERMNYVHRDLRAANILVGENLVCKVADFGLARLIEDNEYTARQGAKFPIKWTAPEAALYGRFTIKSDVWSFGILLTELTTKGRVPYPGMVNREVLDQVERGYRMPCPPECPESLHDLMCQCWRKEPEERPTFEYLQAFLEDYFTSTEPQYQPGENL
Chain of Serine/threonine-protein kinase PAK 3 (Homo sapiens) (O75914 whole entry, looked up): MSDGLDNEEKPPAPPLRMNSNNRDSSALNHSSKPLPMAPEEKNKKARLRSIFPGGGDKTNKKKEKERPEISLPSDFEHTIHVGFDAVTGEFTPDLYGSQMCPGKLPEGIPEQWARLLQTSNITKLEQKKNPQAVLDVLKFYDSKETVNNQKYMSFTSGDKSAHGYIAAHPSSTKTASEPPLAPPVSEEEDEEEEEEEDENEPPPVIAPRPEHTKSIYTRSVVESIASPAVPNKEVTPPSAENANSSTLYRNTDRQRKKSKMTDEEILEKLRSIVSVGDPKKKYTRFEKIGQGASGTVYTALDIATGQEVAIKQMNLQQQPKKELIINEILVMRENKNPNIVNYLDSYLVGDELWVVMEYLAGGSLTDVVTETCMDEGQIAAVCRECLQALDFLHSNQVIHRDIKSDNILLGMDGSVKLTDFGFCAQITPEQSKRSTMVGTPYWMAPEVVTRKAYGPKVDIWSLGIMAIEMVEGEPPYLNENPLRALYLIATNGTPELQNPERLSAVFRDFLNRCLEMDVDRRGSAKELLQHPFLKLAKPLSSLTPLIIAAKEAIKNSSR
Chain of Peripheral plasma membrane protein CASK (Homo sapiens) (O14936 whole entry): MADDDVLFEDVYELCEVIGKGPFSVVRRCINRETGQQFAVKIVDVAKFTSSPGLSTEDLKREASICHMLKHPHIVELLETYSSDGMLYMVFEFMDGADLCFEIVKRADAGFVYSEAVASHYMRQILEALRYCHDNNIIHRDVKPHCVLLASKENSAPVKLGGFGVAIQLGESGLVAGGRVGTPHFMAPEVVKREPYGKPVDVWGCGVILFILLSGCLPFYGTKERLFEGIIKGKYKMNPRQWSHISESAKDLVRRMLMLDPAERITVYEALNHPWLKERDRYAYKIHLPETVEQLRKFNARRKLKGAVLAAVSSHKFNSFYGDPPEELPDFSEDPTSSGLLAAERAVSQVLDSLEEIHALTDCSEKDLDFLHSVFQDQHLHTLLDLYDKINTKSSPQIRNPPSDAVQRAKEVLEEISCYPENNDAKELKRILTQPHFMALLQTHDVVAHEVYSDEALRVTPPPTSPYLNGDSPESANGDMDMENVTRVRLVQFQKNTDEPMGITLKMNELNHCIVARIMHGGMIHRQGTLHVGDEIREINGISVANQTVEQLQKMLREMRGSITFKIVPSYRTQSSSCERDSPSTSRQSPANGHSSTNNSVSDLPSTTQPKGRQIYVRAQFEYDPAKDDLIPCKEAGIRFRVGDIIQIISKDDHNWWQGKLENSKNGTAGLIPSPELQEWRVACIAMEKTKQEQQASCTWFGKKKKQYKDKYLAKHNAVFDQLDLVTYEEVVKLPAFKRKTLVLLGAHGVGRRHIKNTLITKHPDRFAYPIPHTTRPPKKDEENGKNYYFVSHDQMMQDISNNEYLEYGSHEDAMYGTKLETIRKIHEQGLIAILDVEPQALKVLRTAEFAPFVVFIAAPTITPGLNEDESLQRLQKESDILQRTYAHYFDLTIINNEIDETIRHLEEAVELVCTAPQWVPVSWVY
Chain of Serine/threonine-protein kinase TAO3 (Homo sapiens) (Q9H2K8 whole entry): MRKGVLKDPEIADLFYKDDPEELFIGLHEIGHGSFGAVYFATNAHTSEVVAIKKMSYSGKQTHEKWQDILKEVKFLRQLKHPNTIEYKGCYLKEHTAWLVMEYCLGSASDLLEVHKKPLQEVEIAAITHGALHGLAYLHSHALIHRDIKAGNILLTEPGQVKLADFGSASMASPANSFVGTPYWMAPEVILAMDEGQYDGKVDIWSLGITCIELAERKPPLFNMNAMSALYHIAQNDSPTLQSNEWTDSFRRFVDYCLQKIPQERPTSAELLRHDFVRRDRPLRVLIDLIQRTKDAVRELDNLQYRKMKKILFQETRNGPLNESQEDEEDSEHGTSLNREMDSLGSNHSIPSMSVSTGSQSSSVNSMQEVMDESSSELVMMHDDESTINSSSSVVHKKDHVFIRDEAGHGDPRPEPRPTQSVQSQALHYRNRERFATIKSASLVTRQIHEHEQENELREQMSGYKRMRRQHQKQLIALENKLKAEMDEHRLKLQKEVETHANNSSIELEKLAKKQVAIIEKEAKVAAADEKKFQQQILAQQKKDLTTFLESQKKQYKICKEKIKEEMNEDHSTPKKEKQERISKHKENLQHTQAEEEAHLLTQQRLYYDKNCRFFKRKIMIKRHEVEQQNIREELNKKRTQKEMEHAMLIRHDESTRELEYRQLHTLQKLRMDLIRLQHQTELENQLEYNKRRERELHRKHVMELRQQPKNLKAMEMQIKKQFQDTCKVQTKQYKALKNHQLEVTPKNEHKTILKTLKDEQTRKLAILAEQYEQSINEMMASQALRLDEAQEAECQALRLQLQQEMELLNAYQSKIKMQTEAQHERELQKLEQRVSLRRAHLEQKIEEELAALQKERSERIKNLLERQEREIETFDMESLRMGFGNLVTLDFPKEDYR
Chain of Myosin light chain kinase family member 4 (Homo sapiens) (Q86YV6 whole entry): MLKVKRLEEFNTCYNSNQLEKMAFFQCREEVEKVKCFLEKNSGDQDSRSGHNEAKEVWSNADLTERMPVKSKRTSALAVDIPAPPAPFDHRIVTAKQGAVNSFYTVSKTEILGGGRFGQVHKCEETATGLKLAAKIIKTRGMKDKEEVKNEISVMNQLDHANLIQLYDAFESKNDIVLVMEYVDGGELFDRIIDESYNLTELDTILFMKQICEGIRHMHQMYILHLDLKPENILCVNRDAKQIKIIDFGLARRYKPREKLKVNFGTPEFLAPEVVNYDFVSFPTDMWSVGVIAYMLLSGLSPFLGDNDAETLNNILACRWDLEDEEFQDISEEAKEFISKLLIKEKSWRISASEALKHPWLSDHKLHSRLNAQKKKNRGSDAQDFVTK
Chain of Sigma non-opioid intracellular receptor 1 (Q99720 whole entry): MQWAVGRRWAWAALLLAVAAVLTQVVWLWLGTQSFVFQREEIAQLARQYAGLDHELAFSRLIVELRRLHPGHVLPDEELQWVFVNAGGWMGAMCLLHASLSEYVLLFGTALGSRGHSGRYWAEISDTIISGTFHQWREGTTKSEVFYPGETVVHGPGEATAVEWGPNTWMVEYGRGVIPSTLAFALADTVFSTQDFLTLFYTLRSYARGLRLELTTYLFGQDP

For `CCC(=N\O)/C(C)=C/c1ccc(F)c(C)c1` [A-226], the residual activity in [1] was 100%; in series [2], 100%; in series [3], 100%; in series [5], 98%; in [6] it was 99%; in series [7], 46%. Further, the residual activity in series [8] was 87%; in [9] it was 63%; in [10], 86%; in [11], 99%; in series [13], 100%. In addition, the inhibition in [4] was 27%; in series [12], 10.2%.

For `CCC(=N\O)/C(C)=C/c1ccc(F)cc1` [A-079], the inhibition in series [14] is 29%; in [15] it was 4%; in [16], -4%; in [17], 5%; in [19], -1%; in series [20] it was 4%. Moreover, the inhibition in series [21] is -2%; in series [22], 12%; in series [4], 32.7%; in series [23] it was -1%; in [24], 26%; in [25], 1%. Further, the inhibition was 3% in series [26]; 6% in series [27]; 7% in [28]; -1% in series [29]; 7% in series [30]. In series [18], the inhibition at 10 µM is listed as 17% (not active). Further, the residual activity in series [2] was 83%; in series [3], 70%; in [5] it was 91%; in series [6], 94%; in series [7], 86%; in series [8] it was 94%. Besides, the residual activity was 89% in series [9], 67% in series [10] and 100% in series [11].
